Assay results published in patent publication EP4385495A1, “NANOSYSTEMS FOR THE ENCAPSULATION OF THERAPEUTIC AGENTS” (National Technical University of Athens, priority 2022, dated 2024).

What was measured:
[1] = test system: experimental animal model of osteoarthritis (OA); test: von Frey mechanical allodynia test in osteoarthritis rat model; assay type: in vivo, Wistar rats; conditions: for Paw Withdrawal Threshold (%): right paw/(right paw + left paw)*100
Experimental: Healthy adult male Wistar rats (150-200 g) were used for the study, with water and food ad libitum, at a constant temperature of 22°C and controlled lighting (12 h light/12 h dark cycle). […] As far as the dispersion procedure of the injectables is concerned, all the natural compounds were dissolved in saline solution, whereas the studied nanoparticles were mechanically grinded in a mortar and pestle set with saline solution and Tween 20 (2% w/v) and heated at 36 °C before each treatment. There were six treatments administered every 10 days. At the end of the experiment rats were euthanized and both knees were collected for histological analysis. Rats were anesthetized with chloral hydrate. The right knee joints of Group I were injected with normal saline solution and served as a control. Animals from the groups II, III, IV, V, VI, VII were injected with collagenase type II (Clostridium histolyticum). Collagenase (125 collagen digestion unit/mg) was dissolved in saline, and it was injected intra-articularly into the right knee joint twice on days 1 and 4 of the experiment ([…] and S. Fakurazi. Collagenase and sodium iodoacetate-induced experimental osteoarthritis model in Sprague dawley rats. Asian J. Sci. Res. 2: 1-13, 2009). The left knees of all animals were left untreated as a control. For the evaluation of the effectiveness and time of release of the encapsulated compounds, all animals were subjected to a series of behavioral testing in addition to the measurements of body weight and knees diameter change. The experimental protocol of the present study followed the combination of three different behavioral tests, which are von Frey mechanical allodynia test, grid walking and slope walking test. Behavioral tests are performed in three phases, at the beginning before the start of treatment, in the middle of treatment (approximately 35-40 days) and at the end (after the 70th day). Mechanical allodynia was tested by the von Frey method which detects pain threshold as the paw withdrawal response. For the testing, rats were placed into plastic chambers that allow access to the plantar surface of the hind paws. […] In Table 15 below, the nociceptive threshold is defined as: nociceptive threshold (%) = ([…])/((nociceptive; threshold on right paw + nociceptive threshold of left paw))*100 [formula] Table 13: von Frey-paw withdrawal threshold (g)

[2] = biological target: T1, soybean lipoxygenase (LOX) (Glycine max, UniProt P08170); test: Soybean lipoxygenase inhibition assay in vitro; assay type: biochemical
T1 sequence (P08170 1-839): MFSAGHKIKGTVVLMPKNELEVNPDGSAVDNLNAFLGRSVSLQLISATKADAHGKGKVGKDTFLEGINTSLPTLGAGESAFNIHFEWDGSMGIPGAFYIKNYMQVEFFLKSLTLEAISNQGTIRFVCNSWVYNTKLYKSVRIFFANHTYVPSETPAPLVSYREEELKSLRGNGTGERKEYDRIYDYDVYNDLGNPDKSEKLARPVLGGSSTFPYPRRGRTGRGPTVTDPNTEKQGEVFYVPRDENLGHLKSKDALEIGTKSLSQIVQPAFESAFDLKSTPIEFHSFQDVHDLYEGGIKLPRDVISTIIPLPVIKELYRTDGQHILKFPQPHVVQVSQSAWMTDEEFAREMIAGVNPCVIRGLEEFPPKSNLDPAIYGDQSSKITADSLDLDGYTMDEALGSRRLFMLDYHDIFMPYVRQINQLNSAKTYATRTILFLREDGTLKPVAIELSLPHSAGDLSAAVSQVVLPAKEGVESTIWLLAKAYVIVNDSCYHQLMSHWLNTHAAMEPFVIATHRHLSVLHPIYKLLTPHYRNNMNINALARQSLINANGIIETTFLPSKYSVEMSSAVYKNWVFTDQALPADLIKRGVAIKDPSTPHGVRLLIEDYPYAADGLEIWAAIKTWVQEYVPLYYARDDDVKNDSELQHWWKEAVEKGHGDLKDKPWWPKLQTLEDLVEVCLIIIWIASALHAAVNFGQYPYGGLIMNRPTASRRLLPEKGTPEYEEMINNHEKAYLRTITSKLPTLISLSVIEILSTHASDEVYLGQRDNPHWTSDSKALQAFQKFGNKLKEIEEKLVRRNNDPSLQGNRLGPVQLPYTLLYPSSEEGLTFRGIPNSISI
Experimental: The soybean lipoxygenase (LOX) test is a representative assay for anti-inflammatory activity since LOX is implicated in the inflammatory cascade. LOXs contain a "non-heme" iron per molecule in the catalytic active site as high-spin Fe^+2 in the native state and high-spin Fe^+3 in the activated state. […] The inhibitory activity of several LOX inhibitors, such as phenolic derivatives, can be attributed to their chelating capacity to Fe^+3. In brief, two reaction mixtures are prepared in UV cuvettes for each sample, the first reaction mixture contains LOX solution (dissolved in Tris buffer, pH 9) and the sample under examination, whereas the second reaction mixture also contained LLA solution (dissolved in 0.9% NaCl). Both reaction mixtures were measured at room temperature at 234 nm. The inhibition of LOX was measured in the presence of the same level of DMSO, which served as control.
Table 2: Anti-inflammatory potential of the samples expressed as % inhibition of LOX

[3] = test system: experimental animal model of osteoarthritis (OA); test: Knee diameter (digital caliper) and gross observations in collagenase-induced osteoarthritis rat model; assay type: in vivo, Wistar rats; conditions: for Right knee diameter: collagenase-injected knee; for Left knee diameter: untreated control knee
Experimental: (§1) In order to understand the anti-inflammatory and antioxidant potential of the nanoparticles of the invention in vivo an experimental animal model of osteoarthritis (OA) was established. The OA lesions were caused by matrix degradation of articular cartilage using enzymatic means, such as collagenase type-II. Following the induction of osteoarthritis, the studied nanoparticles were administered for 8 weeks in which period the morphological and behavioral changes were measured and finally histological analysis of the articular cartilage samples concluded the in vivo study.
(§2) Rats were anesthetized with chloral hydrate. The right knee joints of Group I were injected with normal saline solution and served as a control. Animals from the groups II, III, IV, V, VI, VII were injected with collagenase type II (Clostridium histolyticum). Collagenase (125 collagen digestion unit/mg) was dissolved in saline, and it was injected intra-articularly into the right knee joint twice on days 1 and 4 of the experiment (Al-Saffar, F., H. Ganabadi and S. Fakurazi. Collagenase and sodium iodoacetate-induced experimental osteoarthritis model in Sprague dawley rats. Asian J. Sci. Res. 2: 1-13, 2009). The left knees of all animals were left untreated as a control.
(§3) Changes in body weight and knee diameter were measured on the 1st, 4th,11th,21st,31st,41st,51st, 61st, 71st day before every injection. Knee diameter was measured using a digital caliper. […] A change in body weight is also measured as one of the parameters to assess the course of the disease in the OA animal models.

[4] = Body weight in collagenase-induced osteoarthritis rat model; assay type: in vivo, Wistar rats
Experimental: as §1, §2, §3

[5] = test system: experimental animal model of osteoarthritis (OA); test: Grid-walking test in osteoarthritis rat model; assay type: in vivo, Wistar rats
Experimental: as §2
In this test the rats were allowed to explore freely for 4 minutes in a wire grid and when one of the limbs fell below the grid surface during free walking, the observer counted the number of foot-fault errors (footslips) (Starkey, M. L., Barritt, A. W., Yip, P. K., Davies, M., Hamers, F. P. T., McMahon, S. B., & Bradbury, E. J. (2005). Assessing behavioural function following a pyramidotomy lesion of the corticospinal tract in adult mice. Experimental Neurology, 195(2), 524-539. doi:10.1016/j.expneurol.2005.0).

[6] = 40 days (half of experimental protocol)
[7] = 70 days (end of experimental protocol)
[8] = 1st injection CO/saline (before treatment)
[9] = 2nd injection CO/saline (before treatment)

For C[C@@H]1O[C@@H](O[C@H]2[C@H](Oc3cc(O)c4c(c3)O[C@H](c3ccc(O)cc3)CC4=O)O[C@H](CO)[C@@H](O)[C@@H]2O)[C@H](O)[C@H](O)[C@H]1O [S1 [NAR], Naringin], the “von Frey-paw withdrawal threshold” value ([1]; 11 days (before treatment)) was 63 g, the “von Frey-paw withdrawal threshold” value ([1]; 40 days (half of experimental protocol), 10 mg/kg (S1, ibuprofen i.p.; nanoparticles i.a.)) was 81,12 g and the “von Frey-paw withdrawal threshold” value ([1]; 70 days (end of experimental protocol), 10 mg/kg (S1, ibuprofen i.p.; nanoparticles i.a.)) was 83,96 g. For the same compound, the “von Frey-paw withdrawal threshold” value ([1]; left-control paw) was 88,68 g, the “paw withdrawal thresholds after commencement of treatment (in words)” value ([1]; rat, in vivo) was “presented an increase” and the “Paw Withdrawal Threshold (%)” value ([1]; 11 days (before treatment)) was 41,53%. For the same compound, the “Paw Withdrawal Threshold (%)” value [1, 6] was 45,55%, the “Paw Withdrawal Threshold (%)” value [1, 7] was 45,95% and the inhibition at 25 µM ([2]; 25 µM, 24h) was 7.1%. The inhibition at 50 µM ([2]; 50 µM, 24h) was 21.2%, the inhibition at 100 µM ([2]; 100 µM, 24h) was 44.6% and the “LOX inhibition at 48 and 72 h compared with 24 h (in words)” value ([2]; 48 and 72 h) was “no significant difference”. The “% Changes in Left knee diameter” value ([3]; 11 days (before treatment)) was 0,26%, the “% Changes in Right knee diameter” value ([3]; 11 days (before treatment)) was 4,14% and the “% Changes in Left knee diameter” value [3, 6] was 0,79%. For the same compound, the “% Changes in Right knee diameter” value [3, 6] was 3,25%, the “% Changes in Left knee diameter” value [3, 7] was 0,84% and the “% Changes in Right knee diameter” value [3, 7] was 2,35%. For the same compound, the Right knee diameter [3, 8] was 0,85 cm, the Right knee diameter ([3]; 1st treatment, 10 mg/kg (S1, ibuprofen i.p.; nanoparticles i.a.)) was 0,8852 cm and the Right knee diameter [3, 9] was 0,882 cm. For the same compound, the Right knee diameter ([3]; 3rd treatment) was 0,9 cm, the Right knee diameter ([3]; 4th treatment) was 0,8776 cm and the Right knee diameter ([3]; 5th treatment) was 0,8712 cm. The Right knee diameter ([3]; 6th treatment) was 0,87 cm, the Right knee diameter ([3]; final) was 0,87 cm and the Left knee diameter ([3]; 1st injection CO/saline) was 0,8572 cm. For the same compound, the Left knee diameter ([3]; 1st treatment) was 0,8594 cm, the Left knee diameter ([3]; 2nd injection CO/saline) was 0,858 cm and the Left knee diameter ([3]; 4th treatment) was 0,864 cm. The Left knee diameter ([3]; final) was 0,8644 cm, the “Body Weight (BW)” value [4, 8] was 247 g and the “Body Weight (BW)” value ([4]; 1st treatment, 10 mg/kg (S1, ibuprofen i.p.; nanoparticles i.a.), every 10 days) was 239 g. For the same compound, the “Body Weight (BW)” value [4, 9] was 236 g, the “Body Weight (BW)” value ([4]; 2nd treatment, 10 mg/kg (S1, ibuprofen i.p.; nanoparticles i.a.)) was 247 g and the “Body Weight (BW)” value ([4]; 3rd treatment, 10 mg/kg (S1, ibuprofen i.p.; nanoparticles i.a.)) was 276 g. The “Body Weight (BW)” value ([4]; 4th treatment, 10 mg/kg (S1, ibuprofen i.p.; nanoparticles i.a.)) was 294 g, the “Body Weight (BW)” value ([4]; 5th treatment, 10 mg/kg (S1, ibuprofen i.p.; nanoparticles i.a.)) was 317 g and the “Body Weight (BW)” value ([4]; 6th treatment, 10 mg/kg (S1, ibuprofen i.p.; nanoparticles i.a.)) was 326 g. For the same compound, the “% Changes in Body Weight (BW)” value ([4]; 11 days (before treatment)) was -3,2%, the “% Changes in Body Weight (BW)” value [4, 6] was 19,0% and the “% Changes in Body Weight (BW)” value [4, 7] was 34,8%. The “Body Weight (BW)” value ([4]; final, 10 mg/kg (S1, ibuprofen i.p.; nanoparticles i.a.)) was 333 g, the “Foot fault in grid-walk test (4 min)” value ([5]; 11 days left paw) was 3,4 and the “Foot fault in grid-walk test (4 min)” value ([5]; 11 days right paw) was 5,6. For the same compound, the “Foot fault in grid-walk test (4 min)” value ([5]; 40 days left paw) was 2, the “Foot fault in grid-walk test (4 min)” value ([5]; 40 days right paw) was 3 and the “Foot fault in grid-walk test (4 min)” value ([5]; 70 days left paw) was 2,8. For the same compound, the “Foot fault in grid-walk test (4 min)” value ([5]; 70 days right paw) was 2,4.
